Measurements from patent publication US9339508B2, “Use of 3-methoxy-pregnenolone for the preparation of a drug for treating a traumatic brain injury” (MAPREG, priority 2003, dated 2016).

Experiments:
[1] = target: T1, microtubule-associated MAP2 (Rattus norvegicus, UniProt P15146); assay: Immunolabeling of microtubule-associated MAP2 in PC12 cells; assay type: cell-based; conditions: 20 μM, NGF 10 ng/ml
T1 construct: endogenous in cells; host or cells: PC12 cells
From the text: They were fixed and exposed to anti-MAP2 antibodies that reveal microtubule-associated MAP2 esclusively.
To rest the effect of selected molecules on neuritic growth, we first used the PC12 line, which has long been employed in neurobiological research. In the presence of NOF (nerve growth factor), the cells of this line, which arise from a rat pheochromocytoma, form neuritic extensions containing MAP-associated microtubules. The growth of these elongations is stimulated by the addition of PREG. […] The screening of other natural or synthetic steroids made it possible to select several molecules presenting greater effects than that of PRIG (FIG. 2). In particular, the addition of molecule 43B, which can be synthesized easily from PRIG, caused a spectacular increase (reaching as high as 500%) in the length of neurites formed in the presence of NOF (FIG. 3). This neurite growth accompanies the stimulation by 43-3 of the association of MAP2 to the microtubules (FIG. 4).

[2] = test system: social isolated rats; assay: Novel object recognition test, social isolated animals, 1 h ITI; assay type: in vivo, rat; conditions: 10 mg/kg subcutaneously 1 h before task
From the text: Cognitive dysfunction, including impaired recognition memory, are common features in depressed patients (Egeland et al., Scand. J. Psychol. 2005). The present experiment explored the ability of 3-methoxy-PREG (43B) administration to increase recognition memory retention in naive animals and to recover recognition memory deficits in animals submitted to the social isolation protocol. Rearing rats in isolation from the time of weaning and throughout adulthood can induce a series of hippocampal structural and molecular deficits paralled by behavioural alterations resembling a depressive-like state (Weiss and Feldon, Psychopharmacology 2001; Bianchi et al., EJN 2006). Recognition memory was assessed using the NOR test which is a two-trial test of recognition memory based on the spontaneous preference of rats for novelty (Ennaceur and Delacour, Behav. Brain. Res. 1988; Bianchi et al. EJN. 2006). Briefly, rats are placed in the open field arena for a 3 min period of habituation and then re-placed in their “home” cage for 1 min. The animals are then re-placed in the arena for the familiarization trial (T1) and allowed to explore two identical objects for 5 min. […] The ability of the animals to discriminate between the novel and the familiar object is then expressed as D2-INDEX: [novel object (sec)−familiar object (sec)]/[novel object (sec)+familiar object (sec)] […]

[3] = test system: PSD95; assay: Western blot of PSD95 in cortex and hippocampus after CCI; assay type: in vivo, rat; conditions: day 35, 20 mg/kg, first injection 2 h post-trauma, ipsilateral injured cortex and hippocampus, contralateral cortex
Method: (§1) CCI was performed with an electromagnetic impact device as described (MyNeurolab, St. Louis, Mo.; Brody et al, 2007). Anesthesized rats were subjected to a single right lateral CCI, with the following parameters impact centered 4.0 mm anterior to lambda and 4.5 mm […] of midline, within the craniotomy of the animal. The impact was set at a velocity of 4 m/s with a sustained depression of 200 ms, using a 5.0 mm tip.
(§2) Samples were analyzed by Western-blot at day 35 post-trauma (D35) to evaluate the effects of MAP4343 on: MAP2 (the target of MAP4343 and a modulator of microtubule function), the post-synaptic markers PSD95 and spinophilin, the pre-synaptic marker synaptophysin, and the axonal growth/integrity marker […].
(§3) Western blot was performed on cortex and hippocampus of TBI-injured animals receiving the first injection of MAP4343 (at 10 mg/kg or 20 mg/kg) or vehicle (sesame oil) 2 h after injury.
(§4) The expression level of various neuronal brain markers of plasticity was measured at day 35 post-trauma by western-blots in the cortex and hippocampus of left uninjured and right injured cerebral hemispheres of CCI traumatized animals receiving either vehicle (sesame oil, CCI-D0) or 3-methoxy-PREG (MAP4343) at 10 mg/kg (CCI-D1) or 20 mg/kg (CCI-D2), with first MAP4343 injection 2 h post-trauma.

[4] = test system: spinophilin; assay: Western blot of spinophilin in cortex and hippocampus after CCI; assay type: in vivo, rat; conditions: day 35, 10 mg/kg or 20 mg/kg, first injection 2 h post-trauma, injured cortex and hippocampus and contralaterally
Method: as §1, §2, §3, §4

[5] = test system: GFAP; assay: GFAP immunohistochemistry after Lateral Fluid Percussion (LFP); assay type: in vivo, rat
From the text: After anesthesia induction, the animal was placed on a stereotaxic frame. To expose the dura mater, craniotomy (diameter 5 mm) was under the left parietal cortex (−3.6 mm from Bregma, −3.0 mm from midline). A female Luer-Lock was placed over the craniotomy and was secured to the parietal bone with dental cement. The Luer-Lock was then filled with isotonic saline to create an interface with the dura meter.
Trauma was induced by a fluid percussion device (Custom Design and Manufacturing, United. Kingdom) (Besson et al., 2003) it is a cylindrical tank (60 cm long), with a piston on one side, over which a hammer exercises a constraint, and a male Luer-Lock on the other side. […] The amplitude of each shock wave was measured via a pressure transducer connected to the terminal portion of the device. The pressure signal was recorded on an oscilloscope. […]
After mounting on Superfrost slides, frozen sections were dried for 90 minutes at room temperature and stored at −80° C. until use. […] Immunostaining was quantitatively assessed by optical density measurements directly from the section image (Image J). […]
GFAP expression was measured by immunohistochemistry at day 35 post-trauma in injured and uninjured cortex, thalamus and hippocampus of LFP traumatized, rats treated with vehicle (sesame oil), or 3-methoxy-PREG (MAP4343) at 10 mg/kg or 20 mg/kg, with first injection at 2 hours post-trauma.

T1 sequence (P15146 whole entry): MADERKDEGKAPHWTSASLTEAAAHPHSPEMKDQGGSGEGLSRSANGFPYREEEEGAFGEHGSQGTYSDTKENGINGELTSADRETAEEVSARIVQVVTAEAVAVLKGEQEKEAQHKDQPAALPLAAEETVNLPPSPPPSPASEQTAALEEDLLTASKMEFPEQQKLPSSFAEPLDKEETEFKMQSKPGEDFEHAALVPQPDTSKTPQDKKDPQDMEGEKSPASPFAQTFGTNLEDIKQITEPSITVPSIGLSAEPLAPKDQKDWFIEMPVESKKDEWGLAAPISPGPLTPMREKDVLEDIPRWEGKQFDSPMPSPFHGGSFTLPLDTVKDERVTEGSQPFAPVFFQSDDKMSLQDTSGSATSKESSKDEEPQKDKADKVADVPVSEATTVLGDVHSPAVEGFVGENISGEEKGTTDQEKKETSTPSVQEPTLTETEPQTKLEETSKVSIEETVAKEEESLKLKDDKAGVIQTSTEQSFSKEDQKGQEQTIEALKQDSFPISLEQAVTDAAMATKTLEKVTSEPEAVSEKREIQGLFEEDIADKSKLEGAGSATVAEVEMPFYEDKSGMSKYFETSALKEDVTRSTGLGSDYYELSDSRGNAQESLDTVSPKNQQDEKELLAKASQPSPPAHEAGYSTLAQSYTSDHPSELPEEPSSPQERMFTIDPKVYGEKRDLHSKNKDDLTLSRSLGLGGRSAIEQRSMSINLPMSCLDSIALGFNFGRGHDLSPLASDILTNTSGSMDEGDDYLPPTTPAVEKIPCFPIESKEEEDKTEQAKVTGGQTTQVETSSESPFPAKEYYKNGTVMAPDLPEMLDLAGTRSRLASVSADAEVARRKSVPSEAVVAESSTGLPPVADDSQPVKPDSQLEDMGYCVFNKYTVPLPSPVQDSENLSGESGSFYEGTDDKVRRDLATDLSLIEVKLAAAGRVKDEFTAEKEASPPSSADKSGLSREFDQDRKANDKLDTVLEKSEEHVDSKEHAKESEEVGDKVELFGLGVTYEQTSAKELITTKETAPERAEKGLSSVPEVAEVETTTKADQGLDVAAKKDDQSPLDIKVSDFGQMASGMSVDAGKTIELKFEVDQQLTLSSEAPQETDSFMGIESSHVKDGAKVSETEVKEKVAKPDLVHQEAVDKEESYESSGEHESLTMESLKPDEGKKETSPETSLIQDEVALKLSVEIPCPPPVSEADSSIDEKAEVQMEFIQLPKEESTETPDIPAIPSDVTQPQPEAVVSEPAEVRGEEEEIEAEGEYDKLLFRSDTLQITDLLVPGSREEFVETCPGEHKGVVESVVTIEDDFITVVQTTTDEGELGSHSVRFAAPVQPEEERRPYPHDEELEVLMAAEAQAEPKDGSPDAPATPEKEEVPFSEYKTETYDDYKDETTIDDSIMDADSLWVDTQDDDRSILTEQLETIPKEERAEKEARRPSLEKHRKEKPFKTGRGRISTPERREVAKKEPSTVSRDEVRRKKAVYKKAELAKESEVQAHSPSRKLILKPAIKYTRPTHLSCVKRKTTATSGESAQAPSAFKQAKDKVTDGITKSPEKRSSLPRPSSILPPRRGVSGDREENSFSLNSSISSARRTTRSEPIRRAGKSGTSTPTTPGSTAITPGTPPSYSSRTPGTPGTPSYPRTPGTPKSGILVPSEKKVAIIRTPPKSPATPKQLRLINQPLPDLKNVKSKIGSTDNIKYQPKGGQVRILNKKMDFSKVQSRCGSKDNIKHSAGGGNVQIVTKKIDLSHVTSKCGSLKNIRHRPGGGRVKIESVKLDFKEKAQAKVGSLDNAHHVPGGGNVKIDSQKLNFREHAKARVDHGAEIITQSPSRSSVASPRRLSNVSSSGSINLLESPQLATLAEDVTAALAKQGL

Question: How did the “association of MAP2 to the microtubules” value [1] turn out when `CO[C@H]1CC[C@@]2(C)C(=CC[C@H]3[C@@H]4CC[C@H](C(C)=O)[C@@]4(C)CC[C@@H]32)C1` [3-methoxy-PREG, 3β-methoxy-pregna-5-ene-20-one] was run?
Answer: stimulation

Question: What about the “discrimination between familiar and novel object” value [2] of the same molecule?
Answer: efficiently discriminated between the familiar and the novel object

Question: What about the PSD95 expression [3] of the same molecule?
Answer: increase in PSD95 expression

Question: What about the spinophilin expression [4] of the same molecule?
Answer: increase in spinophilin expression

Question: What about the “astrocytes GFAP immunoreactivity in the injured cortex” value ([5]; day 35, 10 mg/kg or 20 mg/kg, first injection 2 hours post-trauma) of the same molecule?
Answer: highly decreased

Question: And the “astrocytes immunoreactivity in the injured thalamus” value ([5]; day 35, especially Dose2 (20 mg/kg))?
Answer: strongly decreases astrocytes immunoreactivity
